Measurements from ChEMBL document CHEMBL1201862, “PubChem BioAssay data set” (2004).
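Method: 48-hour compound exposure of cells in 96-well plates, five concentrations, linear interpolation of endpoints. GI50 marks 50% less growth.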 Activity calls are given as the source filed them. Rule as the data show it: active = GI50 up to about 1.1 µM and inactive = higher.

What was measured:
Assay in all cases: NCI tumour cell line growth inhibition, 48 h
786-0 = tested on: 786-0
A549 = tested on: A549
HCC 2998 = tested on: HCC 2998
HOP-92 = tested on: HOP-92
HT-29 = tested on: HT-29
Malme-3M = tested on: Malme-3M
NCI-H226 = tested on: NCI-H226
NCI-H23 = tested on: NCI-H23
NCI-H522 = tested on: NCI-H522
NCI/ADR-RES = tested on: NCI/ADR-RES
PC-3 = tested on: PC-3
SF-268 = tested on: SF-268
SN12C = tested on: SN12C
T47D = tested on: T47D
TK-10 = tested on: TK-10
U-251 = tested on: U-251
UO-31 = tested on: UO-31
EKVX = tested on: EKVX
SK-OV-3 = tested on: SK-OV-3
LOX IMVI = tested on: LOX IMVI

Measured: GI50

NC(Cc1ccc(O)c(O)c1)P(=O)(O)O (stereo unspecified)
inactive: 786-0 > 100 µM | A549 > 100 µM | HCC 2998 > 100 µM | HOP-92 > 100 µM | HT-29 > 100 µM | Malme-3M 81.5 µM | NCI-H226 > 100 µM | NCI-H23 > 100 µM | NCI-H522 4.75 µM | NCI/ADR-RES > 100 µM | PC-3 > 100 µM | SF-268 > 100 µM | SN12C > 100 µM | T47D 18 µM | TK-10 > 100 µM | U-251 > 100 µM | UO-31 > 100 µM

Cc1cn(C2CC(N)C(CN)O2)c(=O)[nH]c1=O (stereo unspecified)
inactive: 786-0 > 100 µM | A549 > 100 µM | EKVX > 100 µM | HCC 2998 > 100 µM | HOP-92 > 100 µM | HT-29 > 100 µM | Malme-3M > 100 µM | NCI-H226 40.6 µM | NCI-H23 > 100 µM | NCI-H522 > 100 µM | NCI/ADR-RES > 100 µM | PC-3 > 100 µM | SF-268 > 100 µM | SK-OV-3 > 100 µM | SN12C 80.7 µM | T47D 37.8 µM | TK-10 > 100 µM | U-251 > 100 µM | UO-31 > 100 µM

O=c1c2ccccc2nnn1-c1n[nH]c2ccccc12
inactive: 786-0 > 100 µM | A549 > 100 µM | EKVX > 100 µM | HCC 2998 > 100 µM | HOP-92 > 100 µM | HT-29 63.4 µM | Malme-3M > 100 µM | NCI-H23 > 100 µM | NCI-H522 > 100 µM | NCI/ADR-RES > 100 µM | PC-3 > 100 µM | SF-268 > 100 µM | SN12C > 100 µM | T47D > 100 µM | TK-10 > 100 µM | U-251 > 100 µM | UO-31 > 100 µM

CCOC(=O)c1c(NC(=S)Nc2ccc(C)cc2)sc2c1CCN(C)C2
inactive: 786-0 > 100 µM | A549 > 100 µM | EKVX > 100 µM | HT-29 > 100 µM | NCI-H226 > 100 µM | NCI-H23 > 100 µM | NCI/ADR-RES > 100 µM | PC-3 > 100 µM | SF-268 > 100 µM | SN12C > 100 µM | T47D > 100 µM | TK-10 > 100 µM | UO-31 > 100 µM

O=C(NCCCc1cn[nH]c(=O)n1)c1cccc2nc3ccccc3nc12
inactive: 786-0 40.7 µM | A549 > 100 µM | EKVX > 100 µM | HCC 2998 > 100 µM | HOP-92 75 µM | HT-29 > 100 µM | LOX IMVI > 100 µM | Malme-3M 36.5 µM | NCI-H226 > 100 µM | NCI-H23 > 100 µM | NCI/ADR-RES > 100 µM | PC-3 > 100 µM | SF-268 91.8 µM | SK-OV-3 > 100 µM | SN12C 86.3 µM | T47D > 100 µM | TK-10 36.5 µM | U-251 36.5 µM

CSc1nc(N)c(NC2OC(CO)C(O)C2O)c(=O)[nH]1 (stereo unspecified)
inactive: 786-0 > 100 µM | A549 > 100 µM | EKVX > 100 µM | HT-29 > 100 µM | LOX IMVI > 100 µM | Malme-3M > 100 µM | NCI-H226 > 100 µM | NCI-H522 > 100 µM | NCI/ADR-RES > 100 µM | PC-3 > 100 µM | SF-268 > 100 µM | SK-OV-3 > 100 µM | SN12C > 100 µM | T47D > 100 µM | TK-10 > 100 µM | U-251 > 100 µM | UO-31 > 100 µM

O=C(O)c1ccc(C(c2c(O)oc3ccccc3c2=O)c2c(O)oc3ccccc3c2=O)cc1
inactive: 786-0 > 100 µM | A549 > 100 µM | HCC 2998 29.3 µM | HOP-92 2.82 µM | HT-29 > 100 µM | LOX IMVI > 100 µM | NCI-H23 59.7 µM | NCI/ADR-RES > 100 µM | PC-3 > 100 µM | SF-268 4.97 µM | SK-OV-3 > 100 µM | SN12C > 100 µM | T47D > 100 µM | U-251 > 100 µM | UO-31 14.2 µM

O=C(O)Cn1ccnc1[N+](=O)[O-]
inactive: 786-0 > 100 µM | A549 > 100 µM | EKVX > 100 µM | HCC 2998 > 100 µM | HOP-92 > 100 µM | HT-29 > 100 µM | Malme-3M > 100 µM | NCI-H226 > 100 µM | NCI-H23 > 100 µM | NCI-H522 > 100 µM | NCI/ADR-RES > 100 µM | PC-3 > 100 µM | SF-268 > 100 µM | SK-OV-3 > 100 µM | SN12C > 100 µM | T47D > 100 µM | TK-10 > 100 µM | U-251 > 100 µM | UO-31 > 100 µM

Brc1ccc(C2(N3CCCCC3)CCCCC2)s1
inactive: 786-0 > 100 µM | A549 39 µM | EKVX 76.6 µM | HCC 2998 15.7 µM | HOP-92 19.7 µM | HT-29 23.5 µM | LOX IMVI 11.7 µM | Malme-3M 29.3 µM | NCI-H23 37.3 µM | NCI-H522 27.3 µM | PC-3 34.1 µM | SF-268 48.9 µM | SK-OV-3 45.2 µM | SN12C > 100 µM | T47D 11.9 µM | TK-10 37.5 µM | U-251 33.1 µM | UO-31 30.8 µM

COC(=O)c1c(O)ccc2c1c1c(n2Cc2ccccc2Cl)C(=O)c2ccccc2C1=O
inactive: 786-0 16.6 µM | A549 8.69 µM | EKVX 16.9 µM | HCC 2998 14.6 µM | HOP-92 14.8 µM | HT-29 1.17 µM | Malme-3M 17 µM | NCI-H226 17.7 µM | NCI-H23 13.2 µM | NCI-H522 10.9 µM | NCI/ADR-RES 12.1 µM | PC-3 11.5 µM | SF-268 12.4 µM | SK-OV-3 12.9 µM | SN12C 10.2 µM | T47D 7.01 µM | TK-10 16.1 µM | U-251 12.6 µM | UO-31 10.9 µM

c1csc(-c2cc(-c3ccsc3)c(-c3ccsc3)s2)c1
inactive: 786-0 > 100 µM | A549 > 100 µM | EKVX 8.15 µM | HCC 2998 68.7 µM | HOP-92 > 100 µM | HT-29 > 100 µM | Malme-3M > 100 µM | NCI-H226 > 10 µM | NCI-H23 > 100 µM | NCI-H522 > 100 µM | NCI/ADR-RES > 100 µM | PC-3 > 100 µM | SF-268 > 100 µM | SK-OV-3 > 100 µM | SN12C > 100 µM | T47D 3.49 µM | TK-10 > 100 µM | U-251 > 100 µM | UO-31 > 100 µM
